Source: the METLIN SMRT retention time set (Domingo-Almenara et al. 2019)

Experiment: gradient 5% acetonitrile 3 min, to 50% in 2 min, to 85% in 15 min, held 3 min, 100 µL/min
Settings: column: Zorbax Extend-C18 2.1 x 50 mm; eluents: water / acetonitrile, 0.1% formic acid
Procedure, shortened: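 Pure standards were run in mixtures of ~100 molecules by HPLC coupled to a quadrupole time-of-flight mass spectrometer. The column was a Zorbax Extend-C18 (2.1 × 50 mm, 1.8 μm) at 100 μL/min, with water and acetonitrile each containing 0.1% formic acid, in positive and negative ionization mode. Dead and dwell volumes were 40 μL and 900 μL. Retention time was taken from computationally picked adduct peaks, each manually inspected, with data collected over 3 months.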

Row | RP-LC retention time [s] | SMILES
1 | 663 | COc1ccc(NC(=O)N2CCC(c3cc(N)on3)CC2)cc1F
2 | 906 | O=C(CN1C(=O)CC(c2ccccc2)S(=O)(=O)c2ccccc21)Nc1ccc(F)cc1F (stereo unspecified)
3 | 609 | Cn1c(C(=O)NCc2cccc(F)c2)cc2ccncc21
4 | 750 | CCOc1ccc(S(=O)(=O)N2CCC(C(=O)NCC3CCCO3)CC2)cc1 (stereo unspecified)
5 | 637 | Cc1cccc2c1ncn1c(=O)n(CC(=O)Nc3ccc4c(c3)OCCO4)nc21
6 | 889 | COc1ccccc1N1CCN(c2nnc(-c3nnc(C)o3)c3ccccc23)CC1
7 | 687 | O=c1ccc(N2CCC(NS(=O)(=O)c3ccccc3C(F)(F)F)C2)n[nH]1 (stereo unspecified)
8 | 699 | Cc1cc(NS(=O)(=O)c2cc(-c3[nH]ncc3C(=O)N(C)C)oc2C)ccc1F
9 | 1090 | CCCn1c(=O)c(C)nc2cc(-c3noc(-c4ccc(OC)c(OC)c4)n3)ccc21
10 | 900 | COc1ccc(S(=O)(=O)NC2CCN(C(=O)Nc3ccc(F)c(Cl)c3)CC2)cc1
11 | 956 | Cc1ccc(Cn2nnc(C(=O)N3CCSCC3)c2-n2cccc2)cc1
12 | 922 | CC(C)=C1SC(N2CCN(c3cccc(C(F)(F)F)c3)CC2)=NC1=O
13 | 595 | CCCN1CCN(c2cc(C(=O)O)c3cc(NS(=O)(=O)c4ccccc4Cl)ccc3n2)CC1
14 | 661 | O=C(CN1Cc2ccccc2C1=O)N[C@@H](Cc1c[nH]c2ccccc12)C(=O)O
15 | 591 | COC(=O)c1ccc(NC(=O)N2CCc3nc[nH]c3C2)cc1
16 | 758 | O=C1CCC2(CCN1)CCN(S(=O)(=O)c1ccc(Cl)cc1)CC2
17 | 753 | O=C(Nc1ccccc1)C1CCCN(c2nnc3ccc(Cl)cn23)C1 (stereo unspecified)

Row | RP-LC retention time [s] | SMILES
18 | 578 | COc1ccc(Cl)cc1C(=O)N1CCN(C2=NC=CN3CC(C)N=C23)CC1 (stereo unspecified)
19 | 710 | COc1ccc(S(=O)(=O)N2CCc3nn(C)c(=O)n3CC2)cc1Cl
20 | 887 | COC(=O)c1ccc(N2C=C(C#N)S(=O)(=O)c3ccc(C)cc32)cc1
21 | 846 | COc1ccc(CNC(=O)C2CCN(C(=O)N3CCOc4ccc(Cl)cc43)CC2)cc1
22 | 732 | COc1ccc(OC)c(NC(=O)CN2CCN(Cc3ccccc3)C(=O)C2=O)c1
23 | 749 | O=C(Nc1ccc(F)cc1)N1CCC(n2c(-c3ccco3)nc3cccnc32)C1 (stereo unspecified)
24 | 909 | CCn1ncn2cc(S(=O)(=O)Nc3ccc(C)c(F)c3)cc2c1=O
25 | 652 | COc1ccc(NC(=O)NC2CCN(C(=O)N3C[C@H]4C[C@H](C3)[C@H]3CCCC(=O)N3C4)CC2)cc1
26 | 620 | CC(C)CCNC(=O)C1(C)Cn2nc(C(=O)N3CCN(C4CCCCC4)CC3)cc2C(=O)N1C (stereo unspecified)
27 | 1170 | Cc1cccc(C)c1NC(=O)C1CCCN(c2nc3ccccc3nc2C(F)(F)F)C1 (stereo unspecified)
28 | 636 | Cc1c(CCC(=O)NCC(=O)N[C@@H](C(=O)O)C(C)C)c(=O)oc2c(C)c(O)ccc12
29 | 638 | COCCn1ccc2nc(C)c(C(=O)NCCc3ccco3)cc2c1=O
30 | 1060 | COc1cccc(-c2noc(CN3C(=O)C(C)Oc4ccccc43)n2)c1 (stereo unspecified)
31 | 634 | COCCNC(=O)CCCN1C(=O)c2ccccc2Sc2ncccc21
32 | 850 | COC(=O)C1=CN(CC(=O)NCc2ccc(Cl)cc2)S(=O)(=O)N=C1C
33 | 947 | O=C(NCC1CCN(C(=O)Oc2ccccc2)CC1)Nc1ccc(C(F)(F)F)cc1
34 | 764 | CCC(C)OC(=O)c1[nH]c2c(c1C)C(=O)CC(c1ccc(N(C)C)cc1)C2 (stereo unspecified)

Row | SMILES | RP-LC retention time [s]
35 | CCn1ccc(C(=O)N2[C@H]3CC[C@@H]2c2cnc(C)nc2C3)n1 | 610
36 | COc1ccc2c(c1)C1(CCN(C(=O)c3ccccc3C(F)(F)F)C1)C(=O)N2 (stereo unspecified) | 714
